Experimental data taken from ChEMBL document CHEMBL4033773, “Improving Metabolic Stability with Deuterium: The Discovery of BMT-052, a Pan-genotypic HCV NS5B Polymerase Inhibitor” (ACS Med Chem Lett, 2017).
pEC50, pIC50: −log10 of the molar value.

Experiments:
Hepatitis C virus [1] = experiment: Antiviral activity against HCV genotype 1a infected in human HuH7 cells assessed as reduction in viral RNA replication after 3 days in presence of human serum by Dual-Glo luciferase reporter gene assay; type: functional, cell-based, Hepacivirus hominis; conditions: subtype 1a, Huh-7, 72 h
Hepatitis C virus [2] = experiment: Antiviral activity against HCV genotype 1a infected in human HuH7 cells assessed as reduction in viral RNA replication after 3 days by Dual-Glo luciferase reporter gene assay; type: functional, cell-based, Hepacivirus hominis; conditions: subtype 1a, Huh-7, 72 h
[3] = Oral bioavailability in dog at 6 mg/kg; type: ADME, organism-based, Canis lupus familiaris; conditions: in vivo
[4] = Volume of distribution at steady state in dog at 1 mg/kg, iv or 3 mg/kg, po; type: ADME, organism-based, Canis lupus familiaris; conditions: in vivo, read-out: Vdss
[5] = AUC in dog at 3 mg/kg, po; type: ADME, organism-based, Canis lupus familiaris; conditions: in vivo
[6] = Distribution constant, log D of compound at pH 6.5; type: physicochemical; conditions: buffer
[7] = Oral bioavailability in cynomolgus monkey at […]; type: ADME, organism-based, Macaca fascicularis; conditions: in vivo
[8] = Volume of distribution at steady state in rat at 2 mg/kg, iv or 6 mg/kg, po; type: ADME, organism-based; conditions: in vivo, read-out: Vdss
[9] = Volume of distribution at steady state in cynomolgus monkey at 1 mg/kg, iv or 3 mg/kg, po; type: ADME, organism-based, Macaca fascicularis; conditions: in vivo, read-out: Vdss
[10] = AUC in rat at 6 mg/kg, po; type: ADME, organism-based; conditions: in vivo
[11] = Clearance in dog at 1 mg/kg, iv or 3 mg/kg, po; type: ADME, organism-based, Canis lupus familiaris; conditions: in vivo
[12] = AUC in cynomolgus monkey at 3 mg/kg, po; type: ADME, organism-based, Macaca fascicularis; conditions: in vivo
[13] = Clearance in rat at 2 mg/kg, iv or 6 mg/kg, po; type: ADME, organism-based; conditions: in vivo
[14] = Clearance in cynomolgus monkey at 1 mg/kg, iv or 3 mg/kg, po; type: ADME, organism-based, Macaca fascicularis; conditions: in vivo
[15] = Oral bioavailability in rat at 6 mg/kg; type: ADME, organism-based; conditions: in vivo
Cytochrome P450 3A4 = Cytochrome P450 3A4 (Homo sapiens, UniProt P08684); experiment: Competitive inhibition of CYP3A4 in human liver microsomes in presence of NADPH by LC-MS/MS analysis; type: ADME
Sequence of Cytochrome P450 3A4 (P08684 whole entry): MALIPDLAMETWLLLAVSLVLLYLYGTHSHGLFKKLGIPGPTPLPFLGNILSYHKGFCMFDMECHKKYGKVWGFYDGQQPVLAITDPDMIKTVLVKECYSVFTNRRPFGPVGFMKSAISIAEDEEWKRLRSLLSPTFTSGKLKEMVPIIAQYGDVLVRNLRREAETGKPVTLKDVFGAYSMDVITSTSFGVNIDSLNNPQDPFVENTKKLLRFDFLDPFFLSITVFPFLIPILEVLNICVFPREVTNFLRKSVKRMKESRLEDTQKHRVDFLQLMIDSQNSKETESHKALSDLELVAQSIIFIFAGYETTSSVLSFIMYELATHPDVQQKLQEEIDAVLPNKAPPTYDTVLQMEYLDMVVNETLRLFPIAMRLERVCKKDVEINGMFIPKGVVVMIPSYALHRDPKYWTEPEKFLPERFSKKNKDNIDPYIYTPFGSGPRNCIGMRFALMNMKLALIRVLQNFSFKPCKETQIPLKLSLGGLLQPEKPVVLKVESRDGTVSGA

Structure (SMILES): [2H]C([2H])([2H])C(NC(=O)c1cccc(-c2cc3c(C(=O)NC)c(-c4ccc(F)cc4)oc3nc2CCC(F)(F)F)c1)(c1ncon1)C([2H])([2H])[2H]
- pEC50 (Hepatitis C virus [1]): 6.84
- pEC50 (Hepatitis C virus [2]): 7.89

Structure (SMILES): [2H]C([2H])([2H])Oc1ncc(-c2cc3c(C(=O)NC)c(-c4ccc(F)cc4)oc3nc2CCC(F)(F)F)cc1C(=O)NC(c1ncon1)(C([2H])([2H])[2H])C([2H])([2H])[2H]
- bioavailability [3]: 90%
- Vd [4]: 2.1 L/kg
- AUC [5]: 125 µM·h
- logD [6]: 3.73
- bioavailability [7]: 85%
- Vd [8]: 11 L/kg
- Vd [9]: 2.3 L/kg
- AUC [10]: 95 µM·h
- clearance [11]: 1 mL/min/kg
- AUC [12]: 16 µM·h
- clearance [13]: 1.6 mL/min/kg
- clearance [14]: 4.7 mL/min/kg
- bioavailability [15]: 100%

Structure (SMILES): CNC(=O)c1c(-c2ccc(F)cc2)oc2nc(CCC(F)(F)F)c(-c3cc(C(=O)NC(C)(C)c4ncon4)c(=O)n(C)c3)cc12
- pIC50 (Cytochrome P450 3A4): 6.36

Structure (SMILES): CNC(=O)c1c(-c2ccc(F)cc2)oc2nc(CCC(F)(F)F)c(-c3cccc(C(=O)NC(C)(C)c4ncon4)c3)cc12
- logD [6]: 4.43
